What was measured:
[1] = Caco-2 A-B passive permeability with preincubation, transporter-inhibited; format: in vitro ADME; settings: human, Caco-2, with 50 μM quinidine, 30 μM benzbromarone, 20 μM sulfasalazine; Figure 3A grouping; read-out: Passive Caco-2 cell permeability group (high, moderate or low)
Procedure: (§1) Transepithelial transport of the compounds through a Caco-2 monolayer (ATCC, HTB-37) was determined in 14–18 days old monolayers in Costar 24-well cell culture cluster plates (polycarbonate membrane, 0.4 μm pore size). Chamber volumes were 200 and 800 μL on the apical and basolateral sides of the cell monolayers, respectively, and all incubations were performed with prewarmed buffers in an orbital shaking incubator at 480 rpm and 37 °C. Prior to the assay, cells were washed with HBSS supplemented with 25 mM HEPES (HBSS-HEPES), pH 7.4, to remove the culture medium. After 15 min of equilibration, the transepithelial electrical resistance (TEER) was determined to assess acceptance of the cell plates into the assay. A second measurement and a lucifer yellow leakage determination was carried out after performing all the transport experiments to monitor integrity of the cell monolayers throughout the study.
(§2) Before the permeability study, to minimize nonspecific binding of PROTACs to the cells and plates, the cells were preincubated with 10 μM compound solution on the apical (donor) side for 1 h, analogous to Muschong et al. Then, cells were washed twice with HBSS-MES pH 6.5 containing 1% BSA. Then, permeability in the absorptive direction (A–B, apical-to-basolateral) was studied over 120 min at a 10 μM test compound concentration. The compound solutions were freshly prepared from DMSO stock solutions diluted into HBSS supplemented with 25 mM MES, pH 6.5, containing efflux inhibitors (50 μM quinidine, 30 μM benzbromarone, and 20 μM sulfasalazine); the final solvent concentration was always 0.5%.
(§3) Samples from the donor side (10 μL) were drawn immediately after the addition of the test compound and after 45 and 120 min. The donor samples were diluted 1:10 in HBSS. From the receiver compartment, an amount of 100 μL was withdrawn after 45 and 120 min and replaced with fresh HBSS-HEPES, pH 7.4.
(§4) Upon completion of the study, all samples were quenched with 300 μL of acetonitrile and analyzed subsequently using UPLC/MS/MS. The permeability was determined as the appearance rate of the compound on the receiver side, in relation to donor concentration, according to eq 4 Papp=dQ/[(dt)(T)]×A/D where dQ/[(dt)(T)] is the slope of the permeation profile across the Caco-2 cell monolayers, A is the surface area of the Transwell insert (0.33 cm^2), and D is the concentration on the donor side. Following the permeability experiments, recovery from the donor and receiver compartments was calculated using eq 5 recovery(%)(0−120min)=CR120×VR+CR45×0.1+CD45×0.01+CD120×VD/D0×VD×100

in vitro = settings: human, pH 7.4, n = 3
Procedure: Binding to the cell homogenate was determined at 0.1 μM for all compounds. A Rapid Equilibrium Dialysis device (Thermo Fisher, Waltham, Massachusetts) was used to dialyze the samples by adding 200 μL of the compound-spiked cell homogenate to one chamber and 350 μL of HBSS/HEPES to the other chamber. The cassette was incubated on an Eppendorf ThermoMixer C (Hamburg, Germany) at 900 rpm for 4 h at 37 °C.

HEK293 cell homogenate = experiment: Equilibrium dialysis binding to HEK293 cell homogenate (fraction unbound); format: in vitro ADME; settings: for cell homogenate binding (bound-to-unbound concentration ratio) compared with matched compound: Figure 6G, 11 vs 9, 8 vs 14, 9 vs 16; for fold higher bound-to-unbound concentration ratio than compound 9: comparator compound 9; for fu,hom mass balance: equilibrium dialysis, 0.1 μM
Procedure: (§5) The unbound fraction of a selected series of PROTACs was determined through equilibrium dialysis against the cell homogenate. HEK293 cells (ATCC, Manassas, VA) were grown in Dulbecco’s modified Eagle’s medium (DMEM) supplemented with 10% fetal bovine serum (FBS) at 37 °C, 95% relative humidity, and 5% CO2. Cell pellets were harvested using 0.05% trypsin and centrifuged at 260g for 5 min. The cells were resuspended in Dulbecco’s phosphate buffer (DPBS), counted using a Luna II cell counter (Logos Biosystems, Anyang, South Korea) and centrifuged at 260g. The supernatant was discarded, and cell pellets were stored at −80 °C prior to cell homogenate preparation. On the day of the experiment, cell pellets were thawed and resuspended in Hank’s balanced salt solution (HBSS) buffered with 20 mM HEPES (pH 7.4) to a concentration of 10 × 10^6 cells/mL. The cell suspension was homogenized using ultrasonication for 10 s at 20% intensity while kept on ice.
(§6) Compound stability was assessed by adding the compound-spiked cell homogenate to an empty well in the dialysis cassette. At the end of the experiment, these concentrations were compared to identical control samples stored at 4 °C. Mass balance was calculated at the end of each experiment. Further, in all wells, two control compounds (atorvastatin and lopinavir) were included to ensure that the assay plate was functional. All compounds were tested in triplicate in one experiment. Compound 2 was only detected on the cell homogenate side, and thus, the concentration on the buffer side was set to half of the lower limit of quantification to allow calculation of an approximate cell homogenate binding.
(§7) Final samples were matrix matched by taking 1 part sample and 1 part blank cell homogenate or buffer. Proteins were precipitated using 1 part matrix matched sample and 3 parts acetonitrile supplemented with 0.3% formic acid (FA) and 5 nM verapamil (internal standard), and this was diluted 1:1 with Milli-Q prior to centrifugation at 2500g for 20 min. Compound concentrations in the supernatant were quantified using a reversed phase system with a Waters Acquity UPLC HSS T3 column (50 × 2.1 mm, 1.8 μm) in an Aquity UPLC connected to a Xevo TQ-XS mass spectrometer (Waters Corp., Milford, MA). The chromatographic run was done using solvent A (0.1% FA in Milli-Q) and solvent B (0.1% FA in acetonitrile Optima LC/MS grade (Fisher Scientific)) with isocratic conditions between 0 and 0.3 min (99.8% solvent A and 0.2% solvent B), a linear gradient between 0.3 and 1.3 min (from 0.2% to 95% solvent B), isocratic conditions between 1.3 and 1.8 min (95% solvent B), and equilibration back to start conditions between 1.8 and 2.3 min. Mass transitions, cone voltages, and collision energies can be found in Table S4.

[2] = set-up: method as in earlier work; settings: rodents; tissue-to-plasma distribution ratios (Kp) indicating substantial binding to tissue components; ref 16 (ARV-110), ref 17 (A947); cited from earlier work
[3] = Equilibrium dialysis binding to HEK293 cell homogenate (fraction unbound); format: in vitro ADME; settings: human, pH 7.4; fraction unbound in HEK293 cell homogenate, 10 × 10^6 cells/mL, 0.1 μM, 4 h, 37 °C; read-out: fu,hom
Procedure: as §5, §6, §7

Caco-2 monolayer = experiment: Caco-2 A-B passive permeability with preincubation, transporter-inhibited; format: in vitro ADME; settings: recovery from donor and receiver compartments, 0-120 min
Procedure: as §1, §2, §3, §4

Row | Compound | Papp A→B at 120 min, 10 μM [1] [×10⁻⁶ cm/s] | fraction unbound at 4 h, 0.1 μM (in vitro; HEK293 cell homogenate) | fraction unbound at 4 h, 0.1 μM [3] | fu,hom mass balance (HEK293 cell homogenate; HEK293 cell homogenate) [%] | Papp Recovery (%) (0-120 min) (Caco-2 monolayer) | other results
1 | Cc1ncsc1-c1ccc(CNC(=O)[C@H]2C[C@H](O)CN2C(=O)[C@@H](NC(=O)COCCOCCOCCNC(=O)C[C@@H]2N=C(c3ccc(Cl)cc3)c3c(sc(C)c3C)-n3c(C)nnc32)C(C)(C)C)cc1 [Compound 6] | 0.5 to 10 | 0.242 | – | – | – | –
2 | N#Cc1ccc(O[C@H]2CC[C@H](NC(=O)c3ccc(N4CCC(CN5CCN(c6cc7c(cc6F)C(=O)N(C6CCC(=O)NC6=O)C7=O)CC5)CC4)nn3)CC2)cc1Cl (some centres unmarked) [ARV-110] | – | – | – | – | – | tissue distribution [2]: widespread and extensive tissue distribution
3 | Cc1ccc(C(=O)NCCCCc2cn(CCCC(=O)NCCCCNc3cccc4c3C(=O)N(C3CCC(=O)NC3=O)C4=O)nn2)cc1-n1c(C)cc(OCc2ccc(F)cc2F)c(Br)c1=O (centres unmarked) [Compound 3] | < 0.5 | – | 0.24 | 111 | 94 | –
4 | Cc1ncsc1-c1ccc(CNC(=O)[C@@H]2C[C@@H](O)CN2C(=O)[C@@H](NC(=O)COCCCCOc2ccc(-c3ccc(N4C(=S)N(c5ccc(C#N)c(C(F)(F)F)c5)C(=O)C4(C)C)cc3)cc2)C(C)(C)C)cc1 [Compound 2] | < 0.5 | – | 0.016 | 109 | 87 | –
5 | CCCOc1cccc(Oc2cc3c(cc2NS(=O)(=O)c2cccc(C(=O)NCCOCCOCCOCC(=O)N[C@@H](C(=O)N4C[C@@H](O)C[C@@H]4C(=O)NCc4ccc(-c5scnc5C)cc4)C(C)(C)C)c2)n(C)c(=O)n3C)c1 [Compound 4] | 0.5 to 10 | – | 0.2 | 66 | 78 | –
6 | COc1cc2c(Oc3ccc(NC(=O)C4(C(=O)Nc5ccc(F)cc5)CC4)cc3F)ccnc2cc1OCCCCOCCCCOCC(=O)NC(C(=O)N1CC(O)CC1C(=O)NCc1ccc(-c2scnc2C)cc1)C(C)(C)C (centres unmarked) [Compound 1] | < 0.5 | – | 0.011 | 118 | 39 | –
7 | CC(=O)c1c(C)c2cnc(Nc3ccc(N4CCN(CCOCCOCCOCCNC(=O)COc5cccc6c5C(=O)N([C@H]5CCC(=O)NC5=O)C6=O)CC4)cn3)nc2n(C2CCCC2)c1=O [Compound 5] | 0.5 to 10 | – | 0.396 | 76 | 84 | –

Continued, in another order:

Row | Papp A→B at 120 min, 10 μM [1] [×10⁻⁶ cm/s] | fraction unbound at 4 h, 0.1 μM (in vitro; HEK293 cell homogenate) | fraction unbound at 4 h, 0.1 μM [3] | fu,hom mass balance (HEK293 cell homogenate; HEK293 cell homogenate) [%] | Papp Recovery (%) (0-120 min) (Caco-2 monolayer) | Compound | other results
8 | < 0.5 | – | – | – | – | COc1cc(-c2cn(C)c(=O)c3cnccc23)cc(OC)c1CN(C)CC(=O)NCCOCCOCCNc1cccc2c1C(=O)N(C1CCC(=O)NC1=O)C2=O (centres unmarked) [Compound 10] | fold lower bound-to-unbound concentration ratio (membrane binding) than compound 7 (HEK293 cell homogenate; HEK293 cell homogenate, comparator compound 7): 5.3 fold; fraction unbound at 4 h, 0.1 μM (in vitro; tissue homogenate): 0.557
9 | > 10 | 0.133 | – | – | – | Cc1sc2c(c1C)C(c1ccc(Cl)cc1)=N[C@@H](CC(=O)NCCCCCCCCNC(=O)COc1cccc3c1C(=O)N(C1CCC(=O)NC1=O)C3=O)c1nnc(C)n1-2 (some centres unmarked) [Compound 8] | cell homogenate binding (bound-to-unbound concentration ratio) compared with matched compound (HEK293 cell homogenate): higher experimental binding than 14; fold higher bound-to-unbound concentration ratio than compound 9 (HEK293 cell homogenate; HEK293 cell homogenate): 4.6 fold
10 | < 0.5 | 0.411 | – | – | – | Cc1sc2c(c1C)C(c1ccc(Cl)cc1)=N[C@@H](CC(=O)NCCCCNC(=O)COc1cccc3c1C(=O)N(C1CCC(=O)NC1=O)C3=O)c1nnc(C)n1-2 (some centres unmarked) [Compound 9] | cell homogenate binding (bound-to-unbound concentration ratio) compared with matched compound (HEK293 cell homogenate): higher cell homogenate binding than 16
11 | – | 0.139 | – | – | – | Cc1ncsc1-c1ccc(CNC(=O)[C@@H]2C[C@@H](O)CN2C(=O)[C@@H](NC(=O)CCCCNC(=O)C[C@@H]2N=C(c3ccc(Cl)cc3)c3c(sc(C)c3C)-n3c(C)nnc32)C(C)(C)C)cc1 [Compound 11, (2S,4R)-1-((2S)-2-(5-(2-((6S)-4-(4-Chlorophenyl)-2,3,9-trimethyl-6H-thieno[3,2-f][1,2,4]triazolo[4,3-a][1,4]diazepin-6-yl)acetamido)pentanamido)-3,3-dimethylbutanoyl)-4-hydroxy-N-(4-(4-methylthiazol-5-yl)benzyl)pyrrolidine-2-carboxamide] | cell homogenate binding (bound-to-unbound concentration ratio) compared with matched compound (HEK293 cell homogenate): higher cell homogenate binding than the CRBN-binding 9; fold higher bound-to-unbound concentration ratio than compound 9 (HEK293 cell homogenate; HEK293 cell homogenate): 3 fold
12 | > 10 | 0.19 | – | – | – | COc1cc(-c2cn(C)c(=O)c3cnccc23)cc(OC)c1CN(C)CC(=O)NCCCCCCCCNc1cccc2c1C(=O)N(C1CCC(=O)NC1=O)C2=O (centres unmarked) [Compound 7] | –
